Source: US10792300B2, “Dendritic cell immune receptor activator, method for activating dendritic cell immune receptor, osteoclast formation inhibitor, method for inhibiting osteoclast formation, dendritic cell differentiation/proliferation inhibitor, method for inhibiting dendritic cell differentiation/proliferation, …” (TOKYO UNIVERSITY OF SCIENCE FOUNDATION, priority 2014, dated 2020)

T1: DCIR-Fc (Mus musculus, UniProt Q9QZ15)
T1 construct: covering the extracellular domain (EC) from 70 to 238 at the amino acid level; made in house; host or cells: HEK293T cells
T1 sequence (Q9QZ15 70-238): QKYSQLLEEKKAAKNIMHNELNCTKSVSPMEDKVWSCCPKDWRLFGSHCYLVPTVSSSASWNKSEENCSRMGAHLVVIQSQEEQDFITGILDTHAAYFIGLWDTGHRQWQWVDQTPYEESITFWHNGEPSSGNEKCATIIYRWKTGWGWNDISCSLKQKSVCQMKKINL


Key:
DCIR-Fc [1] = experiment: Glycan microarray with evanescent-field fluorescence-assisted detection: binding of DCIR-Fc to glycan probes; set-up: species or system murine; settings: for binding of mutant DCIR-Fc (CRD mutants) to the glycan: glycan microarray; for Ca2+ and CRD dependency of DCIR-Fc binding: with or without EDTA, CRD mutants
Text: (§1) Murine DCIR cDNA, covering the extracellular domain (EC) from 70 to 238 at the amino acid level, was subcloned into pFUSE-hIgG2-Fc2 vector (Invitrogen) at Bgl II site. cDNA coding the extracellular domain was generated with a primer set; sense 5′-[…]-3′ (sequence No. 11) and anti-sense 5′-[…]-3′ (sequence No. 12). Site-directed mutations of the CRD domain, in which glutamic acid and serine were replaced to alanine, were established by KOD-Plus-Mutagenesis Kit (TOYOBO). The following primer set was used for the mutagenesis: E197A sense 5′-[…]-3′(sequence No. 13), anti-sense 5′-[…]-3′(sequence No. 14); S199A sense 5′-[…]-3′(sequence No. 15), anti-sense 5′-[…]-3′ (sequence No. 16); E197A/S199A sense 5′-[…]-3′ (sequence No. 17), anti-sense 5′-[…]-3′(sequence No. 18).
(§2) The plasmids were transferred into HEK293T cells by Lipofectamine LTX (Invitrogen), and the cells were incubated in Opti-MEM (Invitrogen) for 15 days and the medium was changed every 3 days. The Fc-chimeric proteins were purified from collected supernatant by affinity chromatography on Protein A-Sepharose (GE Healthcare UK)
(§3) The glycan-protein interaction was detected in a glycan microarray with an evanescent-field fluorescence-assisted detection system. Briefly, glycan probes, including glycoproteins and glycoside-polyacrylamide (PAA), were immobilized on microarray-grade epoxy-activated glass slides (Schott AG) in triplicate spots using a noncontact microarray printing robot, MicroSys 4000 (Genomic Solutions). The glass slides were incubated at 25° C. for 3 hours and washed with a reaction buffer consisting of 25 mM Tris HCl (pH 7.4) containing 0.8% NaCl, 1% (v/v) Triton-X, 1 mM MnCl2, and 1 mM CaCl2 to remove […], followed by blocking in TBS (25 mM Tris-HCl (pH 7.4) with 0.8% NaCl and 1% BSA) at 20° C. for 1 hour. A protein complex of DCIR-Fc, mutant DCIR-Fc, or Fc with Cy3-labelled anti-human Fc antibodies was formed in a reaction buffer at RT by 20 minutes kept in the dark.
(§4) The protein complex was applied to a glass slide at 100 μl per chamber, and was incubated at 20° C. for 3 hours. Without washing, the binding was detected with an evanescent-field activated fluorescence scanner, SC-Profiler (GP Bioscience), and the data was analyzed by the Array Pro analyzer Ver. 4.5 (Media Cybernetics, Inc.) Subtracted raw intensity from background intensity is net intensity, which is presented as the average±s.d. of triplicate spots.

DCIR-Fc [2] = target: T1, DCIR-Fc; experiment: as above; set-up: species or system murine; settings: glycan microarray, DCIR-Fc
Text: as §1, §2, §3, §4

wild-type BMMs [3] = experiment: Western blotting of M-CSF- and RANKL-mediated signals, wild-type BMMs; format: cell-based, mouse; settings: wild-type BMMs pre-treated with NA2
Method: (§5) For western blotting of M-CSF- and RANKL-mediated signals, BMMs were re-plated in a 12-well plate at 250,000 cells per well in the presence of 5 ng/ml of M-CSF. 24 hours after the culture, the BMMs were left in a serum-free medium without M-CSF for 6 hours before stimulation. The cells were activated with 20 ng/ml of M-CSF or 100 ng/ml of RANKL for predetermined periods. […]
(§6) Wild-type and Dcir−/− BMMs were induced to differentiate osteoclasts in the presence of M-CSF and RANKL. […] The number of osteoclasts was determined by TRAP staining. […] Cell lysates were analyzed by western blotting to detect the phosphorylation levels of signal components.

wild-type BMMs [4] = experiment: Osteoclast formation by TRAP staining, wild-type BMMs with M-CSF and RANKL; format: cell-based, mouse
Method: To form M-CSF-dependent bone marrow-derived macrophages, BM cells were isolated by flushing the bone marrow cavity of femurs with α-minimal essential medium (α-MEM) (Gibco, trade name, Life Technologies), supplemented with penicillin (100 units/ml), streptomycin (100 μg/ml) and 10% heat-inactivated fetal bovine serum. Red blood cells were destroyed in a hemolysis buffer (consisting of 140 mM NH4Cl and 17 mM Tris-HCl, pH 7.2) for 10 minutes on ice, and the treated cells were pre-incubated in a 100 mm dish for 1 hour. The non-adherent cells (hematopoietic cells) were harvested and seeded at 50,000 cells per well in 96-well plates in the presence of 20 ng/ml of recombinant human M-CSF (R&D Systems) for 2 days. The cells proliferated in response to M-CSF were defined as BMMs. […]
Adherent cells were fixed in 10% formalin for 3 minutes, followed by further fixation in a fixative buffer consisting of 50% ethanol and 50% acetone for 1 minute. […] TRAP-positive cells with more than 3 or 10 nuclei were counted as multinucleated osteoclasts.
Wild-type and Dcir−/− BMMs were induced to differentiate osteoclasts in the presence of M-CSF and RANKL. […] The number of osteoclasts was determined by TRAP staining. […] Cell lysates were analyzed by western blotting to detect the phosphorylation levels of signal components. […]

[5] = system: Flt3L-induced dendritic cells (DCs); experiment: Pro-inflammatory cytokine production by LPS-activated Flt3L-induced dendritic cells (ELISA); format: cell-based, mouse; settings: 1 μg/ml NA2, 24 hours, versus without NA2
Method: Flt3L-induced dendritic cells (DCs) were prepared by the following process. Bone marrow cells were isolated from femurs of wild-type mice. Red blood cells were destroyed in a hemolysis buffer (consisting of 140 mM NH4Cl and 17 mM Tris-HCl, pH 7.2) for 10 minutes on ice. The cells were seeded at 1 million cells per well in 24-well plates in the presence of 100 ng/ml of recombinant human Flt3L in a medium containing 10% FBS, antibiotic mixtures, essential amino acids and 2-mercaptoethanol. At day 4, 100 ng/ml of recombinant human Flt3L (Milteny) was added in each well and further cultured for additional 4 days. At day 8, the cells were harvested and re-seeded at 500,000 cells per well in 96-well plates.
The DCs thus obtained were activated with agonistic reagents (LPS) with or without 1 μg/ml of a NA2 for 24 hours. The supernatants were collected and the amounts of pro-inflammatory cytokines (IL-6 and p40) were determined by ELISA. As a result, the amount of pro-inflammatory cytokines were smaller when the DCs were stimulated by LPS in the presence of a NA2 than without the same (FIG. 50). In FIG. 50, the left-side two bars represent the amounts of pro-inflammatory cytokines without LPS stimulation, and the right-side two bars represent the amounts of pro-inflammatory cytokines with LPS stimulation, where the black bars represent the cases in the presence of a NA2.

Dcir−/− BMMs = experiment: Western blotting of M-CSF- and RANKL-mediated signals, Dcir−/− BMMs; format: cell-based, mouse; settings: FIG. 49: Dcir−/− BMMs pre-treated with NA2 1 μg/ml for 6 hours
Method: as §5, §6

[6] = system: primary murine osteoblasts; experiment: Effect of IFN-γ on osteoblast formation (alizarin red staining, osteogenic gene expression); format: cell-based; settings: exogenous addition, dose-dependent
Method: Calvarial cells were prepared by sequential digestion followed by a standard method. Briefly, calvavria from 1 to 2-day old neonates were surgically isolated and adherent mesenchymal tissues were trimmed. The neonatal calvaria underwent a first digestion with a degrading solution containing 0.1% collagenase (Wako Pure Chemical Industries) and 0.1% dispase (Roche Diagnostics Japan) for 10 minutes at 37° C. with agitation. The solution was discarded to remove debris, and the remaining calvaria were further digested by the same degrading solution for 1 hour at 37° C. The cells isolated from the serial digestions were suspended in an a-MEM containing 10% FCS, penicillin (100 units/ml) and streptomycin (100 μg/ml), and plated at the concentration of 200,000 cells/well in 12-well plates. Two days after the culture, the cells were incubated in an osteogenic medium (α-MEM supplemented with 10% FBS, 50 μg/ml ascorbic acid (Sigma-Aldrich), 10 mM β-glycerophosphate (Calbiochem) and antibiotics) for 14 days or 21 days, with the medium replaced every 3 days for the entire duration.
Murine osteoblasts were cultured and differentiated according to the protocol as mentioned above. […]
The mineralization formation of osteoblastic cells was detected by the von Kossa method and staining with alizarin red S (sodium alizarin sulphonate). […]

binding of mutant DCIR-Fc (CRD mutants) to the glycan (DCIR-Fc [1]) | Ca2+ and CRD dependency of DCIR-Fc binding (DCIR-Fc [1]) | binding of DCIR-Fc to the glycan (DCIR-Fc [2]) | Molecule | Akt phosphorylation in response to M-CSF and RANKL (wild-type BMMs [3]) | osteoclast formation in wild-type BMMs (wild-type BMMs [4]) | amount of pro-inflammatory cytokine IL-6 [5] | amount of pro-inflammatory cytokine p40 [5] | MAPKs and IκBα upon M-CSF and RANKL stimuli (Dcir−/− BMMs) | alizarin red staining (ability of osteoblasts to mineralize) [6] | expression of osteogenic genes ([6]; day 14 culture)
no binding | Ca^2+-dependent | bound | asialo-transferrin: glycoprotein probe on the glycan microarray; transferrin without sialic acid | – | – | – | – | – | – | –
– | Ca^2+ and CRD were required | bound strongly | asialo-biantennary N-glycan [NA2] | decrease | significant decrease | smaller | smaller | no effect | – | –
remained bound | Ca^2+-dependent | bound | heparin | – | – | – | – | – | – | –
– | – | – | IFN-γ: recombinant murine IFN-γ (PeproTech) (protein, UniProt P01580 23-155, looked up) Interferon gamma: HGTVIESLESLNNYFNSSGIDVEEKSLFLDIWRNWQKDGDMKILQSQIISFYLRLFEVLKDNQAISNNISVIESHLITTFFSNSKAKKDAFMSIAKFEVNNPQVQRQAFNELIRVVHQLLPESSLRKRKRSRC | – | – | – | – | – | augmented | augmented
